ChEMBL document CHEMBL3507680, “University of Dundee, Gates Library screen for HepG2 cell viability”

experiment: Human HepG2 cell viability assay in 384 well format; assay type: toxicity, cell-based; parameters: dose 125 nL, time 70.5 hour; cytotoxicity at 70.5 h: concentration not given beside the values; settings: HepG2 cells, read-out: Inhibition

Compound	cytotoxicity at 70.5 h [%]
CCCNC(=O)COc1cccc(-c2nc(C(C)C)no2)c1	0.882
CC1N(CC2CC2)C(=O)COC12CCN(C(=O)c1cnccn1)CC2 (configuration not stated)	-5.19
CC(=O)Nc1ccc2nc(-c3nccn3C[C@@H]3CCCO3)ccc2c1	-11.8
c1ccc(Cc2cccc(C3CCCN3C3CCOCC3)n2)cc1 (configuration not stated)	-13.2
CCn1ncc2c1CCCC2NCc1ccc(OC)c(F)c1 (configuration not stated)	-9.63
CS(=O)(=O)N1CCC2(CCCN(CCCc3ccccc3)C2=O)C1 (configuration not stated)	-6.93
Cc1nn(C)c(C)c1C1COCCN1C(=O)c1n[nH]c2ccccc12 (configuration not stated)	-10.8
CC1=N[C@@]2(CC[C@@H]3CN(Cc4ccccc4F)C[C@@H]32)C(=O)N1C	-20
COC(=O)c1ccc(/C=C/c2ncc(C(=O)O)s2)cc1	3.38
Cn1ccnc1CN1CCN(CC(=O)NCc2ccccc2F)CC1	1.39
COCC(C)NC(=O)c1nnn(-c2ccc(OC)cc2)n1 (configuration not stated)	-9.57
COCCN1CCN(C(C(=O)O)c2ccc(SC)cc2)CC1 (configuration not stated)	-5.21
Cc1cc(=O)n2ncnc2n1CC(O)c1cc(Cl)ccc1Cl (configuration not stated)	-22.2
Cc1nccn1-c1ccc(=O)n(CCNC(=O)Cc2ccccc2)n1	-12.3
CC(C)n1cc(CN2CCCN(C(=O)c3ccnn3C)CC2)cn1	-2.89
CC(C)=CCN1CCN(C(C)c2cccnc2)CC1 (configuration not stated)	-1.42
CN(Cc1cc(C(C)(C)C)n[nH]1)C(=O)c1ccc2nccn2c1	-2.34
O=C(O)C(c1ccc2c(c1)OCCO2)N1CCCCCC1 (configuration not stated)	-7.26
Cc1noc(C(C)C)c1C(=O)NCC1CCN(c2ccccc2)C1 (configuration not stated)	6.36
Cc1cccc(C)c1OCCNC(=O)C[S+]([O-])C1CCCC1 (configuration not stated)	-5.72
Cc1nc(CN(C)C2CCN(Cc3cccc4cccnc34)C2)no1 (configuration not stated)	34
O=S(=O)(NCCN1CC=CC1)c1ccc(Cl)cc1	-6.79
O=C(C1CCOC1)N1CCC(Cn2cc(-c3ccsc3)nn2)CC1 (configuration not stated)	-11.1

Compound	cytotoxicity at 70.5 h [%]
CNC(=O)CS(=O)(=O)C1CCN(S(=O)(=O)C2CC2)CC1	-3.01
Cc1ncsc1CN1CC(C)(C2CC2)CC1=O (configuration not stated)	-12.2
Cc1nc(CO[C@H]2CN(C(=O)c3cccn3C)[C@@H]3COC[C@H]23)cs1	-11.5
Cn1cc(C2CCCN2Cc2cscn2)cn1 (configuration not stated)	-2.56
Cc1ccc(CNCc2c(C(C)C)nn(C)c2N2CCOCC2)s1	-19.6
CCc1nc(C2CCCN2C(=O)CCc2c(C)noc2Cl)no1 (configuration not stated)	-3.77
COc1ccc(C(C)NCc2nnc(C)s2)cc1F (configuration not stated)	-2.29
COCc1nc(CN2CC(Cc3ccccc3)CC2=O)no1 (configuration not stated)	-8.93
CC(=O)N1CC[C@H]2OCC[C@@]2(C(=O)NCc2ccco2)C1	1.98
O=S1(=O)NC(C2CCN(Cc3ccccn3)CC2)Nc2ccccc21 (configuration not stated)	-9.26
COc1c(C2CCCN2CC(=O)Nc2cc(C)no2)c(C)nn1C (configuration not stated)	-10.7
Cc1ncc(CN(C)Cc2nc3cc(Cl)ccc3n2C)s1	-18.2
COc1ccccc1CC(=O)N1CCCC(c2cc(C)[nH]n2)C1 (configuration not stated)	3.02
Cn1nc(C(=O)NCc2ccc(F)cc2)c2c1CCS(=O)(=O)C2	-6.3
O=C(c1cccc(-n2cccn2)c1)N1CCCOC(Cn2cccn2)C1 (configuration not stated)	12.9
O=C(NCCCN1CCOCC1)C(OC1CCCC1)c1ccccc1 (configuration not stated)	-1.75
C=Cc1ccc(CN2CCCC3(CNC(=O)c4ccccc4O3)C2)cc1 (configuration not stated)	8.95
Cc1ccc(N2CCC(N3C[C@@H](CN(C)C)[C@@H](CO)C3)CC2)cc1	-6.07
CS(=O)(=O)N[C@@H]1CCN(Cc2nccs2)[C@H]1Cc1ccncc1	-13.1
Cc1nccn1CCCn1cncc1-c1ccc2c(c1)CCCN2C	-5.52
O=C(c1ccc(NC2CC2)nc1)N1CCC(Nc2cccnn2)CC1	-8.71
Cn1nc(C(=O)N2CCOCC2)c2c1CN(CC1CCC1)C2	-5.26
Cc1cccc(NC(=O)Nc2c[nH]c(=O)[nH]c2=O)c1C	-1.56

Compound	cytotoxicity at 70.5 h [%]
Fc1cccc(N2C[C@H]3CCN(c4cccnc4)C[C@H]3C2)c1	-5.68
CS(=O)(=O)NCCNC(=O)c1cnc(-c2ccccc2)nc1	-4.82
Cc1cnn(C2CCCN(C(=O)c3ccccc3-n3cnnn3)C2)c1 (configuration not stated)	-3.2
Cc1ccc(C(=O)Nc2cccc3c2C(=O)NC3)c(C)n1	2.51
Nc1cc(-c2cc(O)cc(C(=O)O)c2)c2cc[nH]c2n1	-10.3
Cc1ccc([C@@H]2CN(C(=O)CCc3ccco3)C[C@H]2N(C)C)cc1	0.00383
CC1CN(C)c2ccccc2CN1C(=O)c1ccoc1 (configuration not stated)	10
COc1cccc(CN(C)C(=O)NCc2c(C)cc(C)[nH]c2=O)c1	-4.51
Cc1cc(C)n(CC(C)NC(=O)C2(c3ccc(F)cc3)CC2)n1 (configuration not stated)	-10.8
O=c1[nH]c2c(c(=O)n1C1CCCCC1)CCC2NCc1ccccc1 (configuration not stated)	-30.1
CCCS(=O)(=O)N1CCN(CC(F)(F)F)CC1	-5.82
NS(=O)(=O)c1ccc(F)c(C(=O)NCCSC2CCCCC2)c1	-9.09
CN1CCN(c2ccccc2NC(=O)c2ccco2)CC1	-6.77
COc1ccc(OC)c(C(=O)N2CCCCC2Cn2cccn2)c1 (configuration not stated)	-0.39
CO[C@H]1CC[C@H]2[C@H]1OCCN2Cc1ccc(F)c(F)c1	36.7
COc1cc(CN2CC(=O)N(c3ccc(C)cc3)CC2C)cc(OC)c1 (configuration not stated)	-12
O=C1CC[C@H]2CN(C3CCOCC3)CC[C@H]2N1CCC1=CCCCC1	2.84
COc1cccc(CC(=O)N2CCc3ncnc(C)c3CC2)c1	-5.98
O=C(NCCCN1CCOCC1)c1ccn(COc2ccccc2)n1	-7.55
Cc1cc(I)c2c(c1)C(=O)C(CN1CCCC1)(CN1CCCC1)CO2	-0.395
c1cc(-c2ccc3c(c2)C2(CCNCC2)CC3)ccn1	50.6
CCN(Cc1ccc2c(c1)OCCO2)C(=O)NCc1nc(C)cs1	-27.9
CSCCC(NC(=O)c1ccc2ccccc2n1)C(=O)NC1CC1 (configuration not stated)	-8.01

Compound	cytotoxicity at 70.5 h [%]
CCCC(=O)N1CCCCC1c1nccc(C)n1 (configuration not stated)	8.32
CCN(C(=O)NCc1ncc(C)c(OC)c1C)C(C)c1cccnc1 (configuration not stated)	-9.02
Cc1c(CC(=O)N2CCN(C(C)C)CC2)nnn1-c1ccccc1	23.6
CCc1nc(C)sc1CN1CC[C@](C)(O)[C@H](C)C1	-2.71
Cc1cccc(CN2C[C@@H]3COC[C@]3(COc3ccc(C#N)cn3)C2)n1	-0.115
CS(=O)(=O)NCC1CCCN(C(=O)COCc2ccccc2)C1 (configuration not stated)	-12.3
CNC(=O)C1Cn2ccnc2C2(CCN(C(=O)c3ccoc3C)CC2)O1 (configuration not stated)	-5.12
CC(C)c1nn(C)c(N(C)C)c1CNCc1ccccc1CO	0.684
CCc1c(C(=O)N2CCN(c3cnccn3)CC2)cnn1C(C)(C)C	20.7
CCN(Cc1ccoc1)c1ncc(S(N)(=O)=O)s1	-7.46
CN(C)c1ncc(I)c(C2CCCN2C)n1 (configuration not stated)	1.48
CCS(=O)(=O)NC[C@]12COC[C@H]1CN(Cc1ccncc1)C2	-5.02
CN(C)[C@@H]1CCN(C(=O)Cc2ccc(F)cc2)[C@H]1Cc1ccncc1	-15.9
Cn1cc(N2C(=O)CC[C@@H]3[C@H]2CCN3Cc2nccs2)cn1	-11.9
CCCN(CCC)CCNc1c(-c2ccccc2)c(=O)c1=O	1.06
CCS(=O)(=O)N1CCOC2(CCCN(Cc3ccccn3)C2)C1 (configuration not stated)	-1.63
CC(Cn1ccnc1)NS(=O)(=O)c1ccc(F)c(Cl)c1 (configuration not stated)	-1.84
COCCNC(=O)c1cnc(C)nc1C	34.7
CCCNC(=O)[C@@H]1CCCN1[C@@H](C(=O)NC)C1CC1	-11.8
CN(Cc1cnc(N)nc1)C(=O)c1coc(COc2ccccc2)n1	-2.22
CN(C)C(=O)CN1CCCC1c1cccc(Cc2ccccc2F)n1 (configuration not stated)	0.856
COc1ccc(C(=O)N2CCCCC2Cn2cccn2)c(F)c1 (configuration not stated)	-13.3
CNC(=O)CCc1cc(C)nc(C2CCN(C(=O)CN(C)C)CC2)c1	-3.32

Compound	cytotoxicity at 70.5 h [%]
Cc1noc(C)c1C(=O)NCC1CCCCN1Cc1ccccc1 (configuration not stated)	-1.55
O=C(Nc1ccc(-c2ccn[nH]2)cc1)C1CCCN(Cc2ccoc2)C1 (configuration not stated)	1.09
c1csc(CN2CC[C@H]3C[C@H](c4ccncn4)O[C@@H]3C2)c1	-13.1
CSc1[nH]nc(NC(=O)c2cccnc2)c1C#N	-5.13
CNC(=O)CCN1CCCC1c1ccccc1Br (configuration not stated)	28
Cc1noc(C)c1CN1C(=O)[C@H]2CC[C@@H]1CN(Cc1cccnc1N)C2	16.1
COc1cccc(CN2CCCC(Cn3nc(C)nc3C)C2)c1 (configuration not stated)	-1.83
COCCOCC(=O)N1C[C@@H]2CC[C@H](Oc3ccccc3)[C@@H]2C1	-3.37
CCCn1cc(C(=O)N2CCCC(Cc3nccs3)C2)cn1 (configuration not stated)	-4.77
COc1ccc(NC(=O)Cc2c(C)nc3c(c2C)c(=O)[nH]n3C)cn1	-4.63
COC(=O)CCNC(=O)c1cc(-c2ccc(OC)cc2)nn1C	-3.5
CCc1nc(C2CCCN(C(=O)c3ccc4c(c3)nnn4C)C2)no1 (configuration not stated)	-7.83
COC(=O)c1cccn1C1CCN(Cc2cccnc2)CC1	4.46
CNc1nc2c(c(C(=O)N3CCCC3)n1)CN(Cc1nccn1C)CC2	-10.9
CC(C)c1nccn1C1CCCN(C(=O)CN(C)C2CC2)C1 (configuration not stated)	-2.03
Cc1cccc2nc(C(=O)N3CCC(Nc4cccnn4)CC3)cn12	-21.3
c1cnnc(N2CCCC(NCc3ccc(-n4cncn4)cc3)C2)c1 (configuration not stated)	-3.17
Cc1ccc(S(=O)(=O)NC[C@H]2OC[C@@H](NCc3ccncc3)[C@@H]2O)cc1	-8.05
Cc1ncsc1CN1C[C@H](C(=O)NCC2CC2)[C@@H]2CCO[C@@H]2C1	-7.28
O=C(CN1CCc2c(ncn2C2CC2)C1)NC1CCOCC1	-10.3
